# Measurements published in article PMC10997755, “Discovery of a small-molecule inhibitor that traps Polθ on DNA and synergizes with PARP inhibitors” (Nature Communications, 2024).
# Several values for one entry are separate records, joined by “and”; a condition that tells them apart may be missing. Identical values can stand only once.
# Assays:
# Polθ-pol [1] = target: T1, Polθ-pol (Homo sapiens, UniProt O75417); assay: Relative rate of Polθ-pol dAMP addition; assay type: biochemical
# T1 construct: purified recombinant human Polθ-pol (comprising amino acid residues 1792–2590); made in house
# T1 sequence (O75417 1792-2590): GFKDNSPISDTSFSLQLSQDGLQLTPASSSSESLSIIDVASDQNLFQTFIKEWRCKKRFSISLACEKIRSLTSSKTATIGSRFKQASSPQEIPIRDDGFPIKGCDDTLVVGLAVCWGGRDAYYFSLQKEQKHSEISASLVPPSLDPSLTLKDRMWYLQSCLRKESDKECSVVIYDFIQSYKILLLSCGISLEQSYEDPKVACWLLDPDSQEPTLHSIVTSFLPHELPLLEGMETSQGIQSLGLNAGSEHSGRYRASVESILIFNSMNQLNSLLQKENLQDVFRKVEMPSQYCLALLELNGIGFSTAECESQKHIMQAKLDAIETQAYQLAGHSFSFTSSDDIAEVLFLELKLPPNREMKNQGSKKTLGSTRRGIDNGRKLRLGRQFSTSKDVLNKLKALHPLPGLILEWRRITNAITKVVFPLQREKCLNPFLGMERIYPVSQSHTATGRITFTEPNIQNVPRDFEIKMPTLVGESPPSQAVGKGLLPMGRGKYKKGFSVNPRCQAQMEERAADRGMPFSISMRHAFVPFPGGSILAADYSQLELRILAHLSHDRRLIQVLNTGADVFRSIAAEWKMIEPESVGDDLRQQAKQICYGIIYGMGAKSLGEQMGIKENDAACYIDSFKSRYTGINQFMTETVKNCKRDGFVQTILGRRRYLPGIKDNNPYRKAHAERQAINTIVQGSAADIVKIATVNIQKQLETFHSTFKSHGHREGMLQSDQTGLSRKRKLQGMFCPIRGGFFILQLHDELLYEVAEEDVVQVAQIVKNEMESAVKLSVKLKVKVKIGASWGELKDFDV
# Protocol: Relative rate of Polθ-pol dAMP addition. The relative rates of dAMP incorporation by Polq-pol in the presence of DMSO or MC160385 with various concentrations of dATP were measured using the following primer extension assay in vitro. 2 nM or Polθ-pol was incubated with 5’ ^32P-γ-ATP labeled 100 nM primer-template (RP469D/RP486) in 1X buffer (25 mM TrisHCl pH 7.8, 0.01% NP40, 10% glycerol, 1 mM DTT, 10 mM MgCl2, 0.1 mg/ml BSA) at room temp. 2.5% DMSO, 7.5 nM or 12 nM of MC160385 was added. Reactions were than initiated by the addition of 20, 50, 100, 200, or 300 μM dATP at room temp. Aliquots of the reactions were removed and terminated by the addition of 50 mM EDTA at 3, 3.5, 4 and 5 min after the reaction was initiated. Radio-labeled DNA was then resolved via denaturing 20% PAGE and visualized by Typhoon PhosphorImager (GE Amersham). Rates of dAMP incorporation were calculated from % extension of the prime-template which was determined using ImageJ software. Relative rate of ddCMP addition on DNA/DNA and DNA/RNA. 25 nM nucleic acid DNA/DNA or DNA/RNA primer-template (RP559/RP702 or RP559/RP702R) was mixed with 1X reaction buffer (20 mM TrisHCl pH 7.5, 0.01% NP-40, 0.5 mM DTT, 10% glycerol, 0.1 mg/ml BSA, 10 mM MgCl2) in the presence of 250 μM ddCTP at room temp. Next, 2 μM RTx-161 or 2.5% DMSO was added. Reactions were initiated by the addition of 10 nM Polθ-pol. Reaction aliquots were removed and terminated by the addition of 50 mM EDTA at the indicated time points. Radio-labeled DNA was then resolved via denaturing 20% PAGE and visualized by Typhoon PhosphorImager. Percent primer extension by single ddCMP addition at each time point was calculated from % extension of the prime-template which was determined using ImageJ software.
# Polθ-pol [2] = target: T1, Polθ-pol; assay: Primer extension by recombinant Pols (selectivity); assay type: biochemical
# DLD1 BRCA2 -/- cells = assay: Apoptosis assay (FITC active caspase-3); assay type: cell-based; parameters: FITC+ AVG / FITC- AVG: unit not given here; conditions: for % population FITC Caspase-3 Negative / % population FITC Caspase-3 Positive: bar matched by sums to 100; for FITC+ AVG / FITC- AVG: DLD1 BRCA2 null
# Protocol: DLD1 BRCA2 -/-, DLD1 Parental cells were plated on six well plates and treated with RTX-161 1 day after plating. Medium was replaced every 2 days with RTX-161. Cells were harvested 6 days after plating for apoptosis assay using FITC active caspase-3 apoptosis kit (BD biosciences, catalog # 550480) according to manufacturer’s instructions and analyzed by FACS with Celesta (Becton Dickinson).
compound,measurement,setting,value
CN(C(=O)Oc1ccc(C(F)(F)F)cc1C(F)(F)F)c1ccc(F)cc1 [MC160385],effect on Km for dATP,Polθ-pol [1],slightly reducing
same,effect on Vmax of dAMP incorporation,Polθ-pol [1],significantly reduces
same,relative velocity of dAMP incorporation (avg),"Polθ-pol [1]; 7.5 nM MC160385, dATP 20 uM",2.69 and 2.7
same,relative velocity of dAMP incorporation (avg),"Polθ-pol [1]; 7.5 nM MC160385, dATP 50 uM",5.36 and 5.4
same,relative velocity of dAMP incorporation (avg),"Polθ-pol [1]; 7.5 nM MC160385, dATP 100 uM",6.32 and 6.3
same,relative velocity of dAMP incorporation (avg),"Polθ-pol [1]; 7.5 nM MC160385, dATP 200 uM",6.56 and 6.6
same,relative velocity of dAMP incorporation (avg),"Polθ-pol [1]; 7.5 nM MC160385, dATP 300 uM",6.245 and 6.2
same,relative velocity of dAMP incorporation (avg),"Polθ-pol [1]; 12 nM, dATP 20 uM",2.3
same,relative velocity of dAMP incorporation (avg),"Polθ-pol [1]; 12 nM, dATP 50 uM",4.065
same,relative velocity of dAMP incorporation (avg),"Polθ-pol [1]; 12 nM, dATP 50 uM, listed as MC160386",4.1
same,relative velocity of dAMP incorporation (avg),"Polθ-pol [1]; 12 nM, dATP 100 uM",4.94
same,relative velocity of dAMP incorporation (avg),"Polθ-pol [1]; 12 nM, dATP 100 uM, listed as MC160386",4.9
same,relative velocity of dAMP incorporation (avg),"Polθ-pol [1]; 12 nM, dATP 200 uM",4.6
same,relative velocity of dAMP incorporation (avg),"Polθ-pol [1]; 12 nM, dATP 300 uM",4.95
CN(C(=O)Oc1c(N2CCN(CCO)C2=O)cc(C(F)(F)F)cc1C(F)(F)F)c1ccc(F)cc1 [RTx-161],% Full Extension,Polθ-pol [2]; Pol Theta,14.28%
same,% Inhibition Compared to Control,Polθ-pol [2]; Pol Theta,85.17%
same,% Relative Maximum Extension,Polθ-pol [2]; Pol Theta,14.83%
same,inhibition of primer extension,Polθ-pol [2]; selectivity panel,selective inhibition
same,% population FITC Caspase-3 Negative,DLD1 BRCA2 -/- cells; 10 uM RTX-161,92%
same,% population FITC Caspase-3 Positive,DLD1 BRCA2 -/- cells; 10 uM RTX-161,8%
same,% population FITC Caspase-3 Negative,DLD1 BRCA2 -/- cells; 20 uM RTX-161,90%
same,% population FITC Caspase-3 Positive,DLD1 BRCA2 -/- cells; 20 uM RTX-161,10%
same,FITC+ AVG,"DLD1 BRCA2 -/- cells; 10 uM, left block of sheet",8.433
same,FITC- AVG,"DLD1 BRCA2 -/- cells; 10 uM, left block of sheet",91.5667
same,FITC+ AVG,"DLD1 BRCA2 -/- cells; 10 uM, middle block of sheet",12.1
same,FITC- AVG,"DLD1 BRCA2 -/- cells; 10 uM, middle block of sheet",87.9
same,FITC+ AVG,"DLD1 BRCA2 -/- cells; 10 uM, right block of sheet",12.3333
same,FITC- AVG,"DLD1 BRCA2 -/- cells; 10 uM, right block of sheet",87.6667
same,FITC+ AVG,"DLD1 BRCA2 -/- cells; 20 uM, left block of sheet",9.633
same,FITC- AVG,"DLD1 BRCA2 -/- cells; 20 uM, left block of sheet",90.3667
same,FITC+ AVG,"DLD1 BRCA2 -/- cells; 20 uM, middle block of sheet",13.8333
same,FITC- AVG,"DLD1 BRCA2 -/- cells; 20 uM, middle block of sheet",86.1667
same,FITC+ AVG,"DLD1 BRCA2 -/- cells; 20 uM, right block of sheet",13.3333
same,FITC- AVG,"DLD1 BRCA2 -/- cells; 20 uM, right block of sheet",86.6667
same,apoptosis,DLD1 BRCA2 -/- cells; versus parental,selectively induced PARP cleavage and apoptosis
